Experimental data published in PMC7767506, “Synthesis and Characterization of Store-Operated Calcium Entry Inhibitors Active in the Submicromolar Range” (International Journal of Molecular Sciences, 2020).
Like-named read-outs stand apart in the source and are kept apart here.

Assays:
[1] = test system: Jurkat cell SOCE; test: Thapsigargin-induced SOCE in Jurkat cells, Indo-1 [Ca2+]cyt measurement; format: cell-based, human; conditions: for Ki: 1 µM thapsigargin 10 min, compound added 30 s prior to 1 mM CaCl2
Procedure: To visualize SOCE, we performed a classical protocol: Jurkat cells in Ca^2+-free HBS medium are stimulated by 1 µM thapsigargin (TG, black arrow, Figure 2A) during 600 s to allow the release of Ca^2+ ions by the ER, and the subsequent opening of the store-operated Ca^2+ channels (SOCC). Addition of 1 mM CaCl2 allowed for a massive entry of Ca^2+ ions through SOCC leading thus to an increase of the cytosolic calcium concentration ([Ca^2+]cyt). To test 2-APB and its analogues, different concentrations of compounds were added 30 s prior to Ca^2+ addition.
[Ca^2+]cyt was recorded by a fluorimetric ratio technique as previously described. Leukocytes were spun and resuspended at a density of 10^6 cells/mL in Hepes buffered saline (HBS; 135 mM NaCl, 5.9 mM KCl, 1.2 mM MgCl2, 11.6 mM Hepes, 11.5 mM glucose adjusted to pH 7.3 with NaOH). Due to the presence of 0.002% Ca^2+ in the NaCl, this HBS medium contained 0.1 mM of Ca^2+. Then, cells were incubated in the dark with 4 μM Indo-1-AM for one hour at room temperature under slow agitation. Cells were then centrifuged and resuspended in HBS medium before measurement. To perform the experiments, 0.5 to 1 × 10^6 cells were suspended in 2 mL HBS in a quartz cuvette and inserted into a spectrofluorophotometer (RF-1501 Shimadzu Corporation, Kyoto, Japan) connected to a PC computer (Dell Computer Corp., Montpellier, France). A temperature of 37°C was maintained by circulating water from a bath. Ultraviolet light of 360 nm was used for excitation of Indo-1, and emissions at 405 and 480 nm were recorded. Background and autofluorescence of the cell suspension were subtracted from the recordings. The maximum Indo-1 fluorescence (Rmax) was obtained by adding 1 µM ionomycin to the cell suspension in the presence of 10 mM extracellular CaCl2. Minimum fluorescence was determined following the depletion of external Ca^2+ with 5 mM EGTA.
To visualize the SOCE, cells were placed into the quartz cuvette and 0.5 EGTA was added just before the beginning of the recordings. To induce the SOCE, the cells were treated with 1 μM thapsigargin (TG) during 10 min in Ca^2+-free HBS to induce Ca^2+ release from the ER and the opening of SOCE channels. Then, 1 mM CaCl2 was added to measure the change in [Ca^2+]cyt subsequently to Ca^2+ influx. In the dose-response experiments, different concentrations of 2-APB and its analogs were added 30 s prior to Ca^2+ readdition.

[2] = test system: ER Ca2+ stores of L15 fibroblasts; test: Basal Ca2+ leak from ER stores, unidirectional 45Ca2+ flux in permeabilized L15 fibroblasts; format: cell-based
Procedure: (§1) Measurements of SERCA-mediated ^45Ca^2+ store loading and IP3-dependent release from the ER Ca^2+ store were performed on permeabilized cells in unidirectional conditions. As this approach required the use of cells forming strongly adherent monolayers, we used L15 fibroblasts stably overexpressing IP3R1, similarly to our previous work.
The L15 fibroblasts stably overexpressing IP3R1 were seeded in gelatin-coated 12-well plates (Greiner, Frickenhausen, Germany) at a density of 60,000 cells per well. Unidirectional ^45Ca^2+ flux experiments on confluent cell monolayers were performed at 30 °C after membrane permeabilization with saponin (40 µg/mL), exactly as previously described. After permeabilization, the non-mitochondrial Ca^2+ stores were loaded for 45 min in 120 mM KCl, 30 mM imidazole–HCl (pH 6.8), 5 mM MgCl2, 5 mM ATP, 0.44 mM EGTA, 10 mM NaN3, and 150 nM free ^45Ca^2+ (28 µCi mL^−1). Subsequently, efflux was initiated by incubation in efflux medium (120 mM KCl, 1 mM EGTA, 10 µM TG and 30 mM imidazole–HCl pH 6.8). […] The exact amount of Ca^2+ at each time point is calculated by summing in retrograde order the amount of radioactivity remaining in the cells at the end of the efflux and the radioactivity collected during the successive time intervals. […] These various parameters were measured both in control conditions or in the presence of various 2-APB analogs as indicated. […]

[3] = biological target: SERCA (Mus musculus, UniProt O55143); test: SERCA-mediated 45Ca2+ store loading in permeabilized L15 fibroblasts; format: cell-based; conditions: 100 µM; read-out: change of SERCA activity
Chain of SERCA (O55143 whole entry): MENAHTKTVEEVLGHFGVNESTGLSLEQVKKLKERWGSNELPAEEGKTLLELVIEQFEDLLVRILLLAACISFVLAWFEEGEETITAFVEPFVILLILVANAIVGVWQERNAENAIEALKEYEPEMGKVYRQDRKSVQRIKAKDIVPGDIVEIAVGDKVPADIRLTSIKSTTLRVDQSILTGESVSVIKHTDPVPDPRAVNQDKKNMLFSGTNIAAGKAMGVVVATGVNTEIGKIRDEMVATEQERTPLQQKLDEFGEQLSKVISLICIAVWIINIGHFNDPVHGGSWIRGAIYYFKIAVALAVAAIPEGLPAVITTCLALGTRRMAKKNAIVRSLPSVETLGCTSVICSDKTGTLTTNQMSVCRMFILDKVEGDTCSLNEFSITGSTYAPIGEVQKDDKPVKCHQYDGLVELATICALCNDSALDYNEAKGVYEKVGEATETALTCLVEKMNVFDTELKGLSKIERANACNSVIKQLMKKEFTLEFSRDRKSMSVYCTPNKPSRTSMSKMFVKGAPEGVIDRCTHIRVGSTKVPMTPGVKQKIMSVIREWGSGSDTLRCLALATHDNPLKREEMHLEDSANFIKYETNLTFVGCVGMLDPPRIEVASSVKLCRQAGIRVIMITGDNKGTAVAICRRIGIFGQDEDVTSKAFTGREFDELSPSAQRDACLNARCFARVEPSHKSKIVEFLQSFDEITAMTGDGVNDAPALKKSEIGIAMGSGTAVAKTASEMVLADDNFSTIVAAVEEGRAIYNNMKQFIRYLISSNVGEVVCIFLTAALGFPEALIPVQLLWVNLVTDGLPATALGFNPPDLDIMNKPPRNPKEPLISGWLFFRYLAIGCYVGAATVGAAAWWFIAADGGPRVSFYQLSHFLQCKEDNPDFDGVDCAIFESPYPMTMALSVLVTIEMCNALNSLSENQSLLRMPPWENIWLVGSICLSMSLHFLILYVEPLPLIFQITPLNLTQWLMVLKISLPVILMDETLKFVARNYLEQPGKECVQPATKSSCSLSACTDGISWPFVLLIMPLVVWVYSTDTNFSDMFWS
Procedure: as §1
(§2) The L15 fibroblasts stably overexpressing IP3R1 were seeded in gelatin-coated 12-well plates (Greiner, Frickenhausen, Germany) at a density of 60,000 cells per well. Unidirectional ^45Ca^2+ flux experiments on confluent cell monolayers were performed at 30 °C after membrane permeabilization with saponin (40 µg/mL), exactly as previously described. After permeabilization, the non-mitochondrial Ca^2+ stores were loaded for 45 min in 120 mM KCl, 30 mM imidazole–HCl (pH 6.8), 5 mM MgCl2, 5 mM ATP, 0.44 mM EGTA, 10 mM NaN3, and 150 nM free ^45Ca^2+ (28 µCi mL^−1). Subsequently, efflux was initiated by incubation in efflux medium (120 mM KCl, 1 mM EGTA, 10 µM TG and 30 mM imidazole–HCl pH 6.8). The latter medium was replaced every two minutes for 18 minutes. The exact amount of Ca^2+ at each time point is calculated by summing in retrograde order the amount of radioactivity remaining in the cells at the end of the efflux and the radioactivity collected during the successive time intervals. This allows to calculate the steady-state content of the ER Ca^2+ stores (indicative for the SERCA activity, after subtraction of the loading achieved in the presence of 2 µM TG) the basal leak rate of Ca^2+ out of the stores and the IP3-induced Ca^2+ release after addition of IP3 (0.7 µM). These various parameters were measured both in control conditions or in the presence of various 2-APB analogs as indicated. To assess the effect of the 2-APB analogs on the SERCA-mediated loading of the ER Ca^2+ stores, the analogs were added during the ^45Ca^2+-loading phase as described previously. Obviously, compounds that strongly stimulated the basal Ca^2+ leak out of the stores (as P8) could not be investigated for their effect on SERCA activity (as Ca^2+ loading was already compromised by the increased leak) or on IP3-induced Ca^2+ release (as the decreased luminal Ca^2+ level impacted both the driving force for Ca^2+ release and the sensitivity of the IP3R).

[4] = biological target: T1, IP3R1 (Mus musculus, UniProt P11881); test: IP3-induced Ca2+ release (IICR) in permeabilized L15 fibroblasts overexpressing IP3R1; format: cell-based; conditions: permeabilized L15 fibroblasts
T1 construct: expressed in transfected cells; host or cells: L15 fibroblast cell line (gift of Katsuhiko Mikoshiba), saponin-permeabilized
T1 sequence (P11881 whole entry): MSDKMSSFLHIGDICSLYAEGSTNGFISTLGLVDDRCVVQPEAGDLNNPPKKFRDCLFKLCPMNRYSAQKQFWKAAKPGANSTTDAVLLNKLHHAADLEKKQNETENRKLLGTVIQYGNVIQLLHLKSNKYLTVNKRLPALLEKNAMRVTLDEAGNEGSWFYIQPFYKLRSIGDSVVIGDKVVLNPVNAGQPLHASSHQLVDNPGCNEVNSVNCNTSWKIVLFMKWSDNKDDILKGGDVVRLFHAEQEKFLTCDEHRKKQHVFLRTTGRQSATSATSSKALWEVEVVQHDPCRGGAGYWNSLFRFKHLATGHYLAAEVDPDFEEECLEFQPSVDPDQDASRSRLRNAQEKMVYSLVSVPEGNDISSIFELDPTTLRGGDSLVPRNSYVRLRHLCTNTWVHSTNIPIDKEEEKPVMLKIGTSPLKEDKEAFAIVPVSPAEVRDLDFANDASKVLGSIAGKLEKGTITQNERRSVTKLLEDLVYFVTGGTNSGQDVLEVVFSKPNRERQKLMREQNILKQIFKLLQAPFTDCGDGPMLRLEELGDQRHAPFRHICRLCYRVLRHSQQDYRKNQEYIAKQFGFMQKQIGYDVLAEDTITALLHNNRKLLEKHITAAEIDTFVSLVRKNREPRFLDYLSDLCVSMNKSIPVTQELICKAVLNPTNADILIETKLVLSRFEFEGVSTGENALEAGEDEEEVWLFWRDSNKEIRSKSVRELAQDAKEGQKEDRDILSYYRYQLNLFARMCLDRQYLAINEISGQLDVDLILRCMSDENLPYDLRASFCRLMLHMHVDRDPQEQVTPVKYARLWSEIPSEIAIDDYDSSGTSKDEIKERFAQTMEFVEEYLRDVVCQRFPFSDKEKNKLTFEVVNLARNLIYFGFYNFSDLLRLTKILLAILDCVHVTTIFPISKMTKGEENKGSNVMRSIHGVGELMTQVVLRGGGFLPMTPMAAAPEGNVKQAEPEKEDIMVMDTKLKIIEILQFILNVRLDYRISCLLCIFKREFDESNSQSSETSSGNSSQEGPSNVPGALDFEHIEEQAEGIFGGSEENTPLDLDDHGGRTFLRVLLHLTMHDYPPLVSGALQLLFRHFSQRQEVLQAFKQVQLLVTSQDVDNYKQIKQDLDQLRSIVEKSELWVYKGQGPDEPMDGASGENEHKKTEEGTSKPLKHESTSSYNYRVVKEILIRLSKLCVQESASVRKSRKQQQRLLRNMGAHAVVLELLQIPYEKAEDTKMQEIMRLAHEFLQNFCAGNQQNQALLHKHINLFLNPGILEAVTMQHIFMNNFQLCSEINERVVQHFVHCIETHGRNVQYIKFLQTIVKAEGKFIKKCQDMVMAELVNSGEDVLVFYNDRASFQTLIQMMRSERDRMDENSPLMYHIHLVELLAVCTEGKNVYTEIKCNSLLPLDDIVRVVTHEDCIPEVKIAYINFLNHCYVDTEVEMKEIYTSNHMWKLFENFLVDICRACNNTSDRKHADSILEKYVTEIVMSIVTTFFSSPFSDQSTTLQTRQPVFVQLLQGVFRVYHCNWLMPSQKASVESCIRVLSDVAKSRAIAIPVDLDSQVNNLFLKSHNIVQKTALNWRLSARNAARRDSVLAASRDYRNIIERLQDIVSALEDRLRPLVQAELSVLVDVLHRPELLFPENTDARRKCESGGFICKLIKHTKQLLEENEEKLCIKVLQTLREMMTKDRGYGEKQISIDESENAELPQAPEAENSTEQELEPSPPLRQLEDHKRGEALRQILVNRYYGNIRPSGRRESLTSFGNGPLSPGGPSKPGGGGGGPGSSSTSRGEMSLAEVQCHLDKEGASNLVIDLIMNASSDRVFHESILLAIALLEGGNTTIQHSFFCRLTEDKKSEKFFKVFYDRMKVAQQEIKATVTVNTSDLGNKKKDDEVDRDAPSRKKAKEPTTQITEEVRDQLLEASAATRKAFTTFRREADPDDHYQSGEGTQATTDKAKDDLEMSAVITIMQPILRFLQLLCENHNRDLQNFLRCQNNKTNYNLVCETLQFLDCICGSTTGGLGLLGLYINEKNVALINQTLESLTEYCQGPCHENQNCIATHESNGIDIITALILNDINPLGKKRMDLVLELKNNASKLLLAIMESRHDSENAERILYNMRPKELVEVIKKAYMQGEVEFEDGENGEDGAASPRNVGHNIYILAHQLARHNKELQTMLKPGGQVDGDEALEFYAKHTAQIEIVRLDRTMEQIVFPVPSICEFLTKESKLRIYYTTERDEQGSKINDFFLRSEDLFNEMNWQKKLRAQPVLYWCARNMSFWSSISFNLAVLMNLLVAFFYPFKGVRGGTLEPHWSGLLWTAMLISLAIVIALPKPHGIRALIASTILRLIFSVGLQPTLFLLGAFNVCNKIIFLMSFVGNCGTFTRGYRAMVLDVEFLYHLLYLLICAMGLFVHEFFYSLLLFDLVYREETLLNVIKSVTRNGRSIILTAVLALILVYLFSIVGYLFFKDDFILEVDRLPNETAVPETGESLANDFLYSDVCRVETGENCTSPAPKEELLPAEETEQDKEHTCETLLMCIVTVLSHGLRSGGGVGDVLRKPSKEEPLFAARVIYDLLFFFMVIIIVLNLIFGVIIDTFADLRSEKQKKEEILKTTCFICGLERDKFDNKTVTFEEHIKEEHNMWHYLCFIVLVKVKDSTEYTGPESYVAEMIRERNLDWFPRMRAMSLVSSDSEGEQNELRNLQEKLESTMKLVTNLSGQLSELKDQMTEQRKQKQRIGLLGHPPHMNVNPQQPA
Procedure: as §1
as §2, with “Obviously, compounds that strongly stimulated the basal Ca^2+ leak out of the stores (as P8) could not be investigated for their effect on SERCA activity (as Ca^2+ loading was already compromised by the increased leak) or on IP3-induced Ca^2+ release (as the decreased luminal Ca^2+ level impacted both the driving force for Ca^2+ release and the sensitivity of the IP3R).” left out

[5] = test system: Jurkat cell SOCE; conditions: leukocyte SOCE; cited from earlier work
[6] = Jurkat cells, read-out: Ki (µM), inhibition constant on SOCE
[7] = Jurkat cells, read-out: Ki (nM), inhibition constant on SOCE

Row | Compound | Ki [1, 6] | Ki [1, 7] | further results
1 | 2-(((4-methoxyphenyl)(p-tolyl)boryl)oxy)ethanamine [P16] | 3.1 ± 0.6 µM | – | –
2 | 2-((bis(3,4-dimethylphenyl)boryl)oxy)ethanamine [P7] | – | 0.751 ± 0.097 µM | –
3 | 2-((bis(3,5-dimethylphenyl)boryl)oxy)ethanamine [P10] | ~0.5 µM | 0.484 ± 0.116 µM | concentration of complete/full SOCE inhibition ([1]; Jurkat cells): 3 µM
4 | 2-((bis(3-methoxyphenyl)boryl)oxy)ethanamine [P4] | 75 ± 21 µM | – | maximal inhibition of SOCE ([1]; Jurkat cells): ≈ 80%
5 | 2-((bis(4-(tert-butyl)phenyl)boryl)oxy)ethanamine [P8] | – | 0.35 ± 0.04 µM | Ca2+ leak from the ER by an IP3-independent pathway [2]: strong Ca^2+ leak
6 | 2-((bis(4-methoxyphenyl)boryl)oxy)ethanamine [P2] | 3.5 ± 0.65 µM | – | –
7 | 2-((di(naphthalen-2-yl)boryl)oxy)ethanamine [P6] | – | 0.275 ± 0.017 µM | –
8 | 2-((di-m-tolylboryl)oxy)ethanamine [P5] | 2.1 ± 0.6 µM | – | –
9 | 2-((di-p-tolylboryl)oxy)ethanamine [P3] | 3.5 ± 0.6 µM | – | –
10 | CCCCc1ccc([B-]2(c3ccc(CCCC)cc3)[NH2+]CCO2)cc1 [P9] | – | 0.641 ± 0.103 µM | inhibition at 100 µM [3]: 52 ± 3%; inhibition of IP3R activity [4]: did not significantly inhibit
11 | NCCOB(c1ccc2sccc2c1)c1ccc2sccc2c1 [P12, 2-(dibenzo[b]thiophen-5-ylboryloxy)ethanamine] | – | 0.374 ± 0.096 µM | –
12 | Clc1ccc([B-]2(c3ccc(Cl)cc3)[NH2+]CCO2)cc1 [P13] | 1.8 ± 0.1 µM | – | –
13 | Fc1ccc([B-]2(c3ccc(F)cc3)[NH2+]CCO2)cc1 [P14] | 5.4 ± 0.3 µM | – | –
14 | Cc1ccc([B-]2(c3ccc(C)c(Cl)c3)[NH2+]CCO2)cc1Cl [P15] | ~0.3 µM | 0.294 ± 0.074 µM | –
15 | CC1(C)c2ccccc2-c2ccc([B-]3(c4ccc5c(c4)C(C)(C)c4ccccc4-5)[NH2+]CCO3)cc21 [P17] | > 100 µM | – | effect on SOCE amplitude ([1]; concentrations >3 µM, higher concentrations disrupted the fluorescence): no effect
16 | ((diphenylboryl)oxy)ethanamine [2-APB, reference compound] | – | – | SOCE potentiation, % of control [Ca2+]cyt increase ([1]; 5 µM, Jurkat cells): > 200%; SOCE inhibition ([1]; 50 µM, Jurkat cells): almost total inhibition; concentration of full SOCE block [5]: 20 to 30 µM
